Like-named read-outs stand apart in the source and are kept apart here. Numbered stars: 1 amine (or outer) side, 2 acyl side, 3 side chain; on linkers, the order of the positions; unused ones are H or OH. Square brackets hold non-standard residues; d marks the D form. Peptide text beside a SMILES is read from it. X1 = N=C(N)NCCC[C@H](N[*:1])C(=O)c1nc2ccc(C(=O)[*:2])cc2s1
Legend:
SARS-CoV-2 = assay type: cell-based; set-up: unit not given here
HGFA = target: T1, HGFA (Homo sapiens, UniProt Q04756); experiment: Fluorogenic kinetic enzyme inhibitor assay, HGFA; assay type: biochemical
T1 construct: purchased R&D Systems 1514-SE-010
T1 sequence (Q04756 408-655 limits assumed): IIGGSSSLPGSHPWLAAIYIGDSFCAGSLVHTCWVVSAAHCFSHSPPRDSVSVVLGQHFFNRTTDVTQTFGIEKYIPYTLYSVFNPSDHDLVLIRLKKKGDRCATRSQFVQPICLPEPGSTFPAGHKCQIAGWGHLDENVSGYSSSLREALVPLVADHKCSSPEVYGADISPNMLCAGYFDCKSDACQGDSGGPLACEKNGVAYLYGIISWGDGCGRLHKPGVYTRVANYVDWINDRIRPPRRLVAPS
T1 sequence (Q04756 373-407 partner limits assumed): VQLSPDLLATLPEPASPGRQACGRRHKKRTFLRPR

TMPRSS2 = TMPRSS2 (Homo sapiens, UniProt O15393); experiment: Fluorogenic kinetic enzyme inhibitor assay, TMPRSS2; assay type: biochemical; set-up: purchased Cusabio Technology CSB-YP023924HU
Thrombin = Thrombin (Homo sapiens, UniProt P00734); experiment: Fluorogenic assay, thrombin; assay type: biochemical
Factor Xa = target: T2, Factor Xa (Homo sapiens, UniProt P00742); experiment: Fluorogenic assay, Factor Xa; assay type: biochemical; conditions: read-out: Factor Xa IC50
T2 construct: TMPRSS2; Matriptase; Hepsin; HGFA; Thrombin; Factor Xa

matriptase = target: T3, matriptase (Homo sapiens, UniProt Q9Y5Y6); experiment: Fluorogenic kinetic enzyme inhibitor assay, matriptase; assay type: biochemical
T3 construct: purchased R&D Systems 3946-SEB-010
T3 sequence (Q9Y5Y6 615-855 limits assumed): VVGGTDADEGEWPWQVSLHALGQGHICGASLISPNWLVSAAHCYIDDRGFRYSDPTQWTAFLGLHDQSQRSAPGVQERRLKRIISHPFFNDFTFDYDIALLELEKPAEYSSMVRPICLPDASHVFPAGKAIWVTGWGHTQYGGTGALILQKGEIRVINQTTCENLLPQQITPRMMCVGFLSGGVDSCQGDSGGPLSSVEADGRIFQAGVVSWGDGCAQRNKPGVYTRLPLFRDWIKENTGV

hepsin = target: T4, hepsin (Homo sapiens, UniProt P05981); experiment: Fluorogenic kinetic enzyme inhibitor assay, hepsin; assay type: biochemical
T4 construct: purchased R&D Systems 4776-SE-010
T4 sequence (P05981 163-417 limits assumed): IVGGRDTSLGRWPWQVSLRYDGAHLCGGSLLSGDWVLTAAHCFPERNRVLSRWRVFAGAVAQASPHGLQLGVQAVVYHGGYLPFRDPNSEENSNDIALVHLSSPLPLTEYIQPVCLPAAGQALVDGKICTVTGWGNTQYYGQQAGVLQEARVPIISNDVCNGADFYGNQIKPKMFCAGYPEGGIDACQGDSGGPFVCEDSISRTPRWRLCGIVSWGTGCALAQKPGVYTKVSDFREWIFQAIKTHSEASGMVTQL
T4 sequence (P05981 1-162 partner limits assumed): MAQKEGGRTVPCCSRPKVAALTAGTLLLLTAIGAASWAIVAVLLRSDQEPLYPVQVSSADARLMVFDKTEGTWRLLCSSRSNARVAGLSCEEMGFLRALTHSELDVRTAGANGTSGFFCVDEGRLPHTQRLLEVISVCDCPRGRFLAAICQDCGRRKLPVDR

T2 sequence (P00742 235-488 limits assumed): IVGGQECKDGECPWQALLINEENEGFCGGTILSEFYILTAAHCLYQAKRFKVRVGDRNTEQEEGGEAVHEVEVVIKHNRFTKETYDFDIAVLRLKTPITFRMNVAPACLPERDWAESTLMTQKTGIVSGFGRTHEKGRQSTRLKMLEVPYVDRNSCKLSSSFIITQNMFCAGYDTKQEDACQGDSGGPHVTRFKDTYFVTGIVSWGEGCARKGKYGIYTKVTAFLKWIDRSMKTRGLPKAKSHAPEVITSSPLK
T2 sequence (P00742 41-179 partner limits assumed): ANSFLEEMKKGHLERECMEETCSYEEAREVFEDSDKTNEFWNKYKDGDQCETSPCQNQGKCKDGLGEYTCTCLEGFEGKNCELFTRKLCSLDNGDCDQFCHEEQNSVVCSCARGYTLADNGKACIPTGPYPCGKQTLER
TMPRSS2, sequence (O15393 106-492 limits assumed): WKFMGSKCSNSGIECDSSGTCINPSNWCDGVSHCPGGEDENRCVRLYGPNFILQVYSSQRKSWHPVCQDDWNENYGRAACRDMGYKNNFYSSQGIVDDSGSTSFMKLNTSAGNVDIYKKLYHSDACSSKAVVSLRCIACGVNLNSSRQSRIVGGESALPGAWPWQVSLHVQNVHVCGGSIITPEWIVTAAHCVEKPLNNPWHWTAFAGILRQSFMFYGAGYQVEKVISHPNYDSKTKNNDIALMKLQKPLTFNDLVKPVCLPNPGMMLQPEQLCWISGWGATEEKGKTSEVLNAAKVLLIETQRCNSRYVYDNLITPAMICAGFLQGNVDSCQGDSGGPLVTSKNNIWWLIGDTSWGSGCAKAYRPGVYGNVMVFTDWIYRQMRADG

Compound	IC50 (HGFA; read-out: HGFA IC50) [nM]	IC50 (Thrombin) [nM]	IC50 (Factor Xa) [nM]	IC50 (matriptase; read-out: Matriptase IC50) [nM]	IC50 (hepsin; read-out: Hepsin IC50) [nM]	IC50 (HGFA) [nM]	IC50 (TMPRSS2; read-out: TMPRSS2 IC50) [nM]	IC50 (matriptase) [nM]	also measured
CC(=O)N[C@H]1CC(=O)NCCCC[C@@H](C(=O)O)NC(=O)[C@H](CC(C)C)NC1=O									ring closure, yield of all isomers (from CC(=O)N[C@@H](CC(=O)O)C(=O)N[C@@H](CC(C)C)C(=O)N[C@@H](CCCCN)C(=O)O, amide bond, EDCI/HOBt/iPr2NEt, DMF, 21.25 mM, 25.0 °C, 16.0 h, 9 steps): 59.1%
COC(=O)[C@@H]1CC=CCOc2ccc(cc2)C[C@H](NC(C)=O)C(=O)N[C@@H](CC(C)C)C(=O)N1 [Ac-cyclo-(L) Tyr-Leu-allyl-OMe]									ring closure, yield of all isomers (from C=CCOc1ccc(C[C@H](NC(C)=O)C(=O)N[C@@H](CC(C)C)C(=O)N[C@@H](CC=C)C(=O)OC)cc1, rcm bond, Grubbs 2nd generation catalyst, DCM, 1.28 mM, 40.0 °C, 18.0 h): 65%
CC(=O)N[C@H]1CC(=O)NCCCC[C@@H](C(=O)N[C@@H](CCCNC(=N)N)C(=O)c2nc3ccccc3s2)NC(=O)[C@H](CC(C)C)NC1=O [VD2173, Ac-Cyclo(DLK)—R-ketobenzothiazole]	8520	8140	2050	2.6	19				SARS-CoV-2 Calu-3- titer (0.01 uM) (SARS-CoV-2): 11; SARS-CoV-2 Calu-3 titer (0.1 uM) (SARS-CoV-2): 17; SARS-CoV-2 Calu-3 titer (1 uM) (SARS-CoV-2): 57; IC50 (TMPRSS2): 2.14 nM
CC(=O)N[C@H]1Cc2ccc(cc2)Oc2cccc(c2)C[C@@H](C(=O)N[C@@H](CCCNC(=N)N)C(=O)c2nc3ccccc3s2)NC(=O)[C@H](CC(C)C)NC1=O [VD5064B, N-[(S)-1-[(1,3-benzothiazol-2-yl)carbonyl]-4-guanidinobutyl]-(9S,12S,15S)-15-acetylamino-12-isobutyl-11,14-dioxo-2-oxa-10,13-diazatricyclo[15.2.2.1^3,^7]docosa-1(19),3,5,7(22),17,20-hexaene-9-carboxamide]		> 20000	955	90	0.168				IC50 (HGFA; 30 min incubation, Boc-QLR-AMC at Km, read-out: HGFA IC50): 61.4 nM; IC50 (TMPRSS2; 30 min incubation, Boc-QAR-AMC at Km, read-out: TMPRSS2 IC50): 11 nM
CC(=O)N[C@@H](CO)C(=O)N[C@@H](CCCCN)C(=O)N[C@@H](Cc1ccccc1)C(=O)N[C@@H](CCCNC(=N)N)C(=O)c1nccs1 [ZFH6095, N-[(S)-1-[N-(S)-4-guanidino-1-[(1,3-thiazol-2-yl)carbonyl]butylcarbamoyl]-2-phenylethyl](S)-2-[(S)-2-acetylamino-3-hydroxypropionylamino]-6-aminohexanamide]		> 20000	1060		17	114	7.89	6.1	
CC(=O)N[C@@H](CCCCN)C(=O)N[C@@H](CCC(N)=O)C(=O)N[C@@H](Cc1ccccc1)C(=O)N[C@@H](CCCNC(=N)N)C(=O)c1nccs1 [ZFH6101, N-[(S)-1-[N-(S)-4-guanidino-1-[(1,3-thiazol-2-yl)carbonyl]butylcarbamoyl]-2-phenylethyl](S)-2-[(S)-1-acetylamino-5-aminopentylcarbonylamino] glutaramide]	116	> 20000	158		1.2		28.9	1.4	
CC(=O)N[C@@H](Cc1ccccc1)C(=O)N[C@@H](CC(C)C)C(=O)N[C@@H](Cc1ccccc1)C(=O)N[C@@H](CCCNC(=N)N)C(=O)c1nc2ccccc2s1 [ZFH7063, N-[(S)-1-[N-(S)-1-[(1,3-benzothiazol-2-yl)carbonyl]-4-guanidinobutylcarbamoyl]-2-phenylethyl](S)-2-[(S)-2-acetylamino-3-phenylpropionylamino]-4-methylvaleramide]		> 20000	26			228	3	7.2	IC50 (hepsin): 2.9 nM
CC(=O)N[C@@H](Cc1c[nH]c2ccccc12)C(=O)N[C@@H](CC(C)C)C(=O)N[C@@H](Cc1ccccc1)C(=O)N[C@@H](CCCNC(=N)N)C(=O)c1nc2ccccc2s1 [ZFH7064, N-[(S)-1-[N-(S)-1-[(1,3-benzothiazol-2-yl)carbonyl]-4-guanidinobutylcarbamoyl]-2-phenylethyl](S)-2-[(S)-2-acetylamino-3-(3-indolyl)propionylamino]-4-methylvaleramide]		> 20000	2			266	0.092	12	IC50 (hepsin): 0.69 nM
CC(=O)N[C@@H](CO)C(=O)N[C@@H](CCCCN)C(=O)N[C@@H](CC(C)C)C(=O)N[C@@H](CCCNC(=N)N)C(=O)c1nc2ccc(C(=O)N[C@H](C(N)=O)C(C)C)cc2s1 [ZFH7116, N-[(S)-1-carbamoyl-2-methylpropyl]-2-[(S)-2-[(S)-2-[(S)-1-[(S)-2-acetylamino-3-hydroxypropionylamino]-5-aminopentylcarbonyl-amino]-4-methylvalerylamino]-5-guanidinovaleryl]-1,3-benzothiazole-6-carboxamide] (Ac-SKL[X1]V-NH2)	23	7530	514	14	1				IC50 (TMPRSS2): 2.5 nM
